Data: patent publication US10004222B2, “Small molecule ice recrystallization inhibitors and methods of use thereof” (THE UNIVERSITY OF OTTAWA, priority 2012, dated 2018)

Key:
[1] = splat cooling ice recrystallization inhibition (IRI) assay; details: for decrease in grain size: mean grain size vs PBS alone, 30 min at −6.4° C., FIG. 28
Description: In this assay, the area of ice crystals are measured after a 30 minute annealing time at −6.4° C. and compared to a positive control for ice recrystallization resulting in a quantitative measurement of the mean ice grain size. For a positive control, a phosphate buffered saline (PBS) solution was utilized. All samples were normalized to the PBS positive control. The ice recrystallization inhibition activity of the carbohydrate-based non-ionic surfactants n-octyl-β-D-glucopyranoside (compound 3) and n-octyl-β-D-galactopyranoside (compound 4) is shown in FIG. 1.
In this assay, the area of ice crystals are measured after a 30 minute annealing time at −6.4° C. and compared to a positive control for ice recrystallization resulting in a quantitative measurement of the mean ice grain size. For a positive control, a PBS solution was utilized. All samples were normalized to the PBS positive control.
N-aryl-D-gluconamides (3a), (2a), (4a), and (1b) are a class of low molecular weight carbohydrate-based compounds. The ice recrystallization inhibition activity of (3a), (2a), (4a), and (1b) was assessed using a “splat cooling” assay. In this assay, the area of ice crystals are measured after a 30 minutes annealing time at −6.4° C. and compared to a positive control for ice recrystallization resulting in a quantitative measurement of the mean ice grain size. For a positive control, PBS was utilized. All samples were normalized to the PBS positive control.

HepG2 cells = experiment: human liver cell viability, MTT assay; type: cell-based; details: at the concentration that yielded the highest functionality; overnight at 37° C.
Description: In the assay, HepG2 cells (human hepatocellular carcinoma cells) were harvested and incubated at 37° C. overnight in a 96-well plate to a concentration of 20,000 cells per well using Minimum Essential Medium (MEM) as media. The following day (or once cells were confluent) the media was removed and cells were incubated at 37° C. overnight with MEM supplemented with desired concentration of PMP-Glc and NOGlc (100 μL of solution added). The following day the plates were centrifuged (700 RPM for 3 minutes) and the solutions were removed. 200 μL of MEM was added to each well, followed by 50 μL of 2.5 mg/mL MTT solution in Hank's Balanced Salt Solution (HBSS) to a final concentration of 0.5 mg/mL MTT per well. Then the plates were incubated for 3 hours at 37° C. After incubation, the plates were centrifuged (700 RPM for 3 minutes) and 200 μL of a 10% TritonX/0.1 N HCl in isopropanol solution was added to each well. The plates were incubated in the dark for 1 hour, then shaken and the absorbance at […] of each well was read. % viability at 37° C. of PMP-Glc at a concentration 11 mM, 22 mM, 44 mM, 110 mM and 220 mM PMP-Glc was measured, and the results are shown in FIG. 12. % viability at 37° C. of NOGlc at a concentration of 0.1 mM, 0.2 mM, 0.5 mM, 1 mM, 2 mM and 5 mM was measured. Also, % viability at 37° C. of PMP-Glc, pFPh-Glc and pBrPh-Glc at a concentration of 11 mM, 22 mM, 44 mM, 55 mM, 110 mM and 220 mM was measured under the same conditions for the MTT Assay described above.
Human liver cell viability in compound (3a), (4a), […], and (1b) was assessed using a 3-(4,5-dimethylthiazol-2-yl)-2,5-diphenyltetrazolium bromide (MTT) Assay. In the assay, HepG2 cells (human hepatocellular carcinoma cells) were harvested and incubated overnight at 37° C. in a 96-well plate to a concentration of 20,000 cells per well using Minimum Essential Medium (MEM) as media. The following day, the media was removed and cells were incubated at 37° C. overnight with 100 μL MEM supplemented with different concentrations of (3a), (2a), (4a), and (1b). The following day, the plates were centrifuged at 1000 rpm for 5 minutes and solutions removed by aspiration. 200 μL of MEM was added to each well, followed by 50 μL of 2.5 mg/mL MTT (dissolved in HBSS). The plates were then incubated at 37° C. for 4 hours. After incubation, the plates were centrifuged at 1000 rpm for 5 minutes and solution was aspirated. […] The plates were incubated at ambient temperature for 3 hours before being shaken and the absorbance at 570 nm of each well was read. % viability at 37° C. of (3a) at 11 mM, 22 mM, 44 mM, 55 mM and 110 mM was measured and the results are shown in FIG. 37. […] Nonetheless, the cytotoxicity of DMSO itself was not determined.

SMILES | ice recrystallization inhibition activity ([1]; concentration not given) | decrease in grain size [1] | cytotoxicity (HepG2 cells)
O=C(NCc1c(F)cccc1F)[C@H](O)[C@@H](O)[C@H](O)[C@H](O)CO [(1b), N-(2,6-difluorobenzyl)-D-gluconamide] | higher IRI activity than compound (2b) | about 85% | minimally cytotoxic relative to DMSO alone
O=C(Nc1ccccc1F)[C@H](O)[C@@H](O)[C@H](O)[C@H](O)CO [(2a), N-(2-fluorophenyl)-D-gluconamide] | – | ~95% | minimally cytotoxic relative to DMSO alone
COc1ccc(NC(=O)[C@H](O)[C@@H](O)[C@H](O)[C@H](O)CO)cc1 [(3a), N-(4-methoxyphenyl)-D-gluconamide] | – | ~95% | minimally cytotoxic relative to DMSO alone
O=C(Nc1ccc(Cl)cc1)[C@H](O)[C@@H](O)[C@H](O)[C@H](O)CO [(4a), N-(4-chlorophenyl)-D-gluconamide] | – | ~60% | minimally cytotoxic relative to DMSO alone
